How the values were obtained:
[1] = target: Human recombinant Acetyl-CoA Carboxylase 2 (ACC2) (Homo sapiens, UniProt O00763); experiment: Assay X: ACC2 inhibition, inorganic phosphate (malachite green); type: biochemical; conditions: Assay X: 37° C., 1.5 h, 5 min pre-incubation
Method in brief: (§1)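 Human recombinant enzyme pre-incubated 5 min with compound before substrate addition; reaction run 1.5 h, then inorganic phosphate detected by malachite green absorbance at 660 nm. Ten concentrations tested in triplicate; apparent IC50 from four-parameter curve fit.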

[2] = target: Human recombinant Acetyl-CoA Carboxylase 1 (ACC1) (Homo sapiens, UniProt Q13085); experiment: Assay X: ACC1 inhibition, inorganic phosphate (malachite green); type: biochemical; conditions: Assay X: 37° C., 1.5 h, 5 min pre-incubation
Method in brief: as §1

Sequence of Human recombinant Acetyl-CoA Carboxylase 2 (ACC2) (O00763 whole entry): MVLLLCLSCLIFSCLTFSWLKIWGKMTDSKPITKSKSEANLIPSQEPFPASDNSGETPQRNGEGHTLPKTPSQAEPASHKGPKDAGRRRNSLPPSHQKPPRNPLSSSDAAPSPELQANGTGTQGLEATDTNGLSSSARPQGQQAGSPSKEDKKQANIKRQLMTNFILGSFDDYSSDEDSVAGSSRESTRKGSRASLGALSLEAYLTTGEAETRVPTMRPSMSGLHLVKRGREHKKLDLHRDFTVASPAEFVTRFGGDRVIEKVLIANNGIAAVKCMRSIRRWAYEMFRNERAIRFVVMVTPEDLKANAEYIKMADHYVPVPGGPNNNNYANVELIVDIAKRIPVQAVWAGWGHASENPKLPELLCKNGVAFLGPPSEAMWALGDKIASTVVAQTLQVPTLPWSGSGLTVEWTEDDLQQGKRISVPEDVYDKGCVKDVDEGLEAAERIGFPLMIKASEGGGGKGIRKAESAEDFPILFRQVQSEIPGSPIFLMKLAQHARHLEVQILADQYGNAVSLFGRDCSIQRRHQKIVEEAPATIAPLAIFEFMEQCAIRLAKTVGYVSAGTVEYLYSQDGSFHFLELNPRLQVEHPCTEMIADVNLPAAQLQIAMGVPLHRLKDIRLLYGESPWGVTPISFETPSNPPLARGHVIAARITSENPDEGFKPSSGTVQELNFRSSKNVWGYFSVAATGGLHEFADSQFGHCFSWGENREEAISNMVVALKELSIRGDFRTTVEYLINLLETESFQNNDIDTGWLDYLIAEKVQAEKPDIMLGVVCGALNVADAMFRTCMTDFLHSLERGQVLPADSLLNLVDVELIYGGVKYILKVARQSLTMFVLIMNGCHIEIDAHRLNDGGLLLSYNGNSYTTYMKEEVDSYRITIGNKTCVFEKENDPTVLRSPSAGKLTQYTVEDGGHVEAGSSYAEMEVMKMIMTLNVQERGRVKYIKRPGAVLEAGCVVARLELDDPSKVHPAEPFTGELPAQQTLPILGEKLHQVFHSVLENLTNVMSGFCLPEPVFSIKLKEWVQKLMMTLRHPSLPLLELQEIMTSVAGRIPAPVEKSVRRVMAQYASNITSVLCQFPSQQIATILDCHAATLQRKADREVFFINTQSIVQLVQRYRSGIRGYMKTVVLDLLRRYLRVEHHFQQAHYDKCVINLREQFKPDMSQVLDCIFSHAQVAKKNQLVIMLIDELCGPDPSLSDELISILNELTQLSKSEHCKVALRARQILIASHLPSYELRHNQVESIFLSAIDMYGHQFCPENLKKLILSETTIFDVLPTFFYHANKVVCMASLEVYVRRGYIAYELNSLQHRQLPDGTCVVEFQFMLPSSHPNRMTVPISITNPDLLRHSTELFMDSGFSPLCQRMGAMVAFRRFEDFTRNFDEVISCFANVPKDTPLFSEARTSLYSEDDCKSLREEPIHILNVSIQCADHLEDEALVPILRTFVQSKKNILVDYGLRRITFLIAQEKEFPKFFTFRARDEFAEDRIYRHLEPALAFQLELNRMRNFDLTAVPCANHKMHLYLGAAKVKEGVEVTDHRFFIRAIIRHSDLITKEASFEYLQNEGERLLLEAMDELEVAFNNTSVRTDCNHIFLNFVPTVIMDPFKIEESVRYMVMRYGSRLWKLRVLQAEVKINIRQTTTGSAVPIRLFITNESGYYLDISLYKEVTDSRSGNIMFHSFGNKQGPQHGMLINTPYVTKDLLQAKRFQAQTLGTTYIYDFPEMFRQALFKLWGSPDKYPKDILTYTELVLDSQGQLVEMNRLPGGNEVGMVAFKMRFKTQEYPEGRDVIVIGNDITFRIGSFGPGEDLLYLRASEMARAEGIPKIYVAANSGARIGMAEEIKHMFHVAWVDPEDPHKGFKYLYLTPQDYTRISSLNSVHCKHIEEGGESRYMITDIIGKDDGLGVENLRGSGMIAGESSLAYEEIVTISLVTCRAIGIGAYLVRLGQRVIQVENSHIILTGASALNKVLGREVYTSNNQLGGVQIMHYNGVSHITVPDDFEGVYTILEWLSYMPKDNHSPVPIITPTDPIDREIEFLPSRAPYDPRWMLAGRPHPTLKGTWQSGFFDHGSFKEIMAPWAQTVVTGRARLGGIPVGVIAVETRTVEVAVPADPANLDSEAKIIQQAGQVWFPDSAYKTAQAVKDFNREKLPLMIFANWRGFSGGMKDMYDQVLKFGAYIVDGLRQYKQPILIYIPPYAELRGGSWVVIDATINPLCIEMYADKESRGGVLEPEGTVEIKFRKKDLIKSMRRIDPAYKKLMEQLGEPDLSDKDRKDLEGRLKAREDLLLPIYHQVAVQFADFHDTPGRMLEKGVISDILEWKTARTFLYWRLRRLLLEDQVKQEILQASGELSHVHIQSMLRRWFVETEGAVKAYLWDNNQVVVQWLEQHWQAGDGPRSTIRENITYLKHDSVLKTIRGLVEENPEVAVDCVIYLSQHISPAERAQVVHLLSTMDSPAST

| SMILES | IC50 [1] | IC50 [2] |
| --- | --- | --- |
| CC(C)(C)OC(=O)NC[C@H]1CC[C@H](CNC(=O)c2cc(N3CCN(C(=O)CO)CC3)nc3ccccc23)CC1 [Example 220, tert-Butyl [(trans-4-{[({2-[4-(hydroxyacetyl)piperazin-1-yl]quinolin-4-yl}carbonyl)amino]methyl}cyclohexyl)methyl]carbamate] | 1180 nM | 9630 nM |
| CC(=O)NCC1CCN(c2cc(C(=O)NC[C@H]3CC[C@H](CNC(=O)OC(C)(C)C)CC3)c3ccccc3n2)CC1 [Example 191, tert-Butyl [(trans-4-{[({2-[4-(acetamidomethyl)piperidin-1-yl]quinolin-4-yl}carbonyl)amino]methyl}cyclohexyl)methyl]carbamate] | 970 nM | 2960 nM |
| CC(C)(C)OC(=O)NC[C@H]1CC[C@H](CNC(=O)c2cc(N3CCC(CCN4CC(C(=O)O)C4)CC3)nc3ccccc23)CC1 [Example 235, 1-{2-[1-(4-{[(trans-4-{[(tert-Butoxycarbonyl)amino]methyl}cyclohexyl)methyl]-carbamoyl}quinolin-2-yl)piperidin-4-yl]ethyl}azetidine-3-carboxylic Acid] | 230 nM | 1840 nM |
| CC(C)(C)OC(=O)NC[C@H]1CC[C@H](CNC(=O)c2cc(-c3ccc(NCCC(N)=O)nc3)nc3ccccc23)CC1 [Example 167, tert-Butyl{[trans-4-({[(2-{6-[(3-amino-3-oxopropyl)amino]pyridin-3-yl}quinolin-4-yl)-carbonyl]amino}methyl)cyclohexyl]methyl}carbamate] | 1580 nM | 4400 nM |
| O=C(NC[C@H]1CC[C@H](CNC(=O)c2cc(-c3ccc(NCCO)nc3)nc3ccccc23)CC1)O[C@H]1CCOC1 [Example 200, (3S)-Tetrahydrofuran-3-yl{[trans-4-({[(2-{6-[(2-hydroxyethyl)amino]pyridin-3-yl}quinolin-4-yl)carbonyl]amino}methyl)cyclohexyl]methyl}-carbamate] | 1200 nM | 4500 nM |
| CC(C)(C)OC(=O)NC[C@H]1CC[C@H](CNC(=O)c2cc(N3CCNCC3)nc3ccccc23)CC1 [Example 190, tert-Butyl {[trans-4-({[(2-piperazin-1-ylquinolin-4-yl)carbonyl]amino}methyl)-cyclohexyl]methyl}carbamate] | 1300 nM | 13600 nM |
| O=C(NC[C@H]1CC[C@H](CNC(=O)c2cc(-c3ccc(NCCO)nc3)nc3ccccc23)CC1)OC1CCOCC1 [Example 197, Tetrahydro-2H-pyran-4-yl {[trans-4-({[(2-{6-[(2-hydroxyethyl)amino]pyridin-3-yl}quinolin-4-yl)carbonyl]amino}methyl)cyclohexyl]methyl}carbamate] | 1980 nM | 9640 nM |
| CC(=O)NCCOC(=O)NC[C@H]1CC[C@H](CNC(=O)c2cc(-c3ccc(N4CCN(C)CC4)nc3)nc3ccccc23)CC1 [Example 122, 2-Acetamidoethyl[(trans-4-{[({2-[6-(4-methylpiperazin-1-yl)pyridin-3-yl]quinolin-4-yl}carbonyl)amino]methyl}cyclohexyl)methyl]carbamate] | 1860 nM | 8130 nM |

Now from value to molecule:

| IC50 [1] | IC50 [2] | SMILES |
| --- | --- | --- |
| 620 nM | 3280 nM | CC(C)(C)OC(=O)NC[C@H]1CC[C@H](CNC(=O)c2cc(N3CCC(CN4CCOCC4)CC3)nc3ccccc23)CC1 [Example 213, tert-Butyl[(trans-4-{[({2-[4-(morpholin-4-ylmethyl)piperidin-1-yl]quinolin-4-yl}carbonyl)amino]methyl}cyclohexyl)methyl]-carbamate] |
| 160 nM | 300 nM | CC(C)(C)OC(=O)NC[C@H]1CC[C@H](CNC(=O)c2cc(-c3ccc(N4CCC(CO)CC4)nc3)nc3ccccc23)CC1 [Example 161, tert-Butyl{[trans-4-({[(2-{6-[4-(hydroxymethyl)piperidin-1-yl]pyridin-3-yl}-quinolin-4-yl)-carbonyl]amino}methyl)cyclohexyl]methyl}carbamate] |
| 420 nM | 1670 nM | CN1CCN(c2ccc(-c3cc(C(=O)NC[C@H]4CC[C@H](CNC(=O)OCC5CCOC5)CC4)c4ccccc4n3)cn2)CC1 (stereo partly drawn) [Example 126, Tetrahydrofuran-3-ylmethyl[(trans-4-{[({2-[6-(4-methylpiperazin-1-yl)pyridin-3-yl]quinolin-4-yl}carbonyl)amino]methyl}cyclohexyl)methyl]carbamate] |
| 490 nM | > 20000 nM | CC(C)(C)OC(=O)NC[C@H]1CC[C@H](CNC(=O)c2cc(Oc3cccnc3)nc3ccccc23)CC1 [Example 215, tert-Butyl ({trans-4-[({[2-(pyridin-3-yloxy)quinolin-4-yl]carbonyl}amino)-methyl]cyclohexyl}methyl)carbamate] |
| 240 nM | 1330 nM | CN(C)CCn1cc(-c2cc(C(=O)NC[C@H]3CC[C@H](CNC(=O)OC(C)(C)C)CC3)c3ccccc3n2)cn1 [Example 242, tert-Butyl {[trans-4-({[(2-{1-[2-(dimethylamino)ethyl]-1H-pyrazol-4-yl}quinolin-4-yl)carbonyl]amino}methyl)cyclohexyl]methyl}carbamate] |
| 610 nM | 1930 nM | CC(C)(C)OC(=O)NC[C@H]1CC[C@H](CNC(=O)c2cc(-c3cnn(CCO)c3)nc3ccccc23)CC1 [Example 243, tert-Butyl [(trans-4-{[({2-[1-(2-hydroxyethyl)-1H-pyrazol-4-yl]quinolin-4-yl}carbonyl)amino]methyl}cyclohexyl)methyl]carbamate] |
| 650 nM | 1370 nM | CC[C@H](Nc1ccc(-c2cc(C(=O)NC[C@H]3CC[C@H](CNC(=O)OC(C)(C)C)CC3)c3ccccc3n2)cn1)C(N)=O [Example 169, tert-Butyl({trans-4-[({[2-(6-{[(1S)-1-carbamoylpropyl]amino}pyridin-3-yl)-quinolin-4-yl]-carbonyl}amino)methyl]cyclohexyl}methyl)carbamate] |
| 370 nM | 1100 nM | CC(C)(C)OC(=O)NC[C@H]1CC[C@H](CNC(=O)c2cc(-c3ccc(N4CCC[C@H]4C(N)=O)nc3)nc3ccccc23)CC1 [Example 163, tert-Butyl{[trans-4-({[(2-{6-[(2S)-2-carbamoylpyrrolidin-1-yl]pyridin-3-yl}-quinolin-4-yl)-carbonyl]amino}methyl)cyclohexyl]methyl}-carbamate] |
| 150 nM | 1250 nM | CC(C)(C)OC(=O)NC[C@H]1CC[C@H](CNC(=O)c2cc(N3CCC(CCNCCF)CC3)nc3ccccc23)CC1 [Example 244] |
| 820 nM | 4900 nM | CN(C)CCOc1ccc(-c2cc(C(=O)NC[C@H]3CC[C@H](CNC(=O)OC4CCOCC4)CC3)c3ccccc3n2)cn1 [Example 195, Tetrahydro-2H-pyran-4-yl {[trans-4-({[(2-{6-[2-(dimethylamino)ethoxy]pyridin-3-yl}quinolin-4-yl)carbonyl]amino}methyl)cyclohexyl]methyl}carbamate] |
| 110 nM | 260 nM | CC(C)(C)OC(=O)NC[C@H]1CC[C@H](CNC(=O)c2cc(-c3ccc(N)nc3)nc(-c3cccc(CN)c3)c2)CC1 [Example 241, tert-Butyl [(trans-4-{[({6′-amino-6-[3-(aminomethyl)phenyl]-2,3′-bipyridin-4-yl}carbonyl)amino]methyl}cyclohexyl)methyl]carbamate] |
| 140 nM | 1290 nM | CN(CCO)CCC1CCN(c2cc(C(=O)NC[C@H]3CC[C@H](CNC(=O)OC(C)(C)C)CC3)c3ccccc3n2)CC1 [Example 232, tert-Butyl({trans-4-[({[2-(4-{2-[(2-hydroxyethyl)(methyl)-amino]ethyl}piperidin-1-yl)quinolin-4-yl]carbonyl}amino)-methyl]cyclohexyl}-methyl)carbamate] |

Reference: patent US20090306133A1, “New Acetyl Coenzyme A Carboxylase (ACC) Inhibitors And Uses In Treatments Of Obesity And Diabetes Mellitus - 087” (ASTRAZENECA AB, priority 2007, published 2009)
